Data on 6 compounds can be found in ChEMBL document CHEMBL1129610, “3- and 4-pyridylalkyl adamantanecarboxylates: inhibitors of human cytochrome P450(17 alpha) (17 alpha-hydroxylase/C17,20-lyase). Potential nonsteroidal agents for the treatment of prostatic cancer” (J Med Chem, 1996).

A short description of series [1]: in vitro. The settings on record: rat, in vivo.
Series [2] is filed under the species Homo sapiens. It is filed as functional, Blood.
The species entered for series [3] is Mus musculus. It is filed as functional, Blood.
The species entered for series [4] is Rattus norvegicus. It is filed as functional, Blood.
A short description of series [5]: in vitro. Particulars: rat, in vivo. The source holds these as a separate data set.
The target in series [6] is T1, Steroid 17-alpha-hydroxylase/17,20 lyase (Homo sapiens, UniProt P05093).
T1 sequence (P05093 whole entry): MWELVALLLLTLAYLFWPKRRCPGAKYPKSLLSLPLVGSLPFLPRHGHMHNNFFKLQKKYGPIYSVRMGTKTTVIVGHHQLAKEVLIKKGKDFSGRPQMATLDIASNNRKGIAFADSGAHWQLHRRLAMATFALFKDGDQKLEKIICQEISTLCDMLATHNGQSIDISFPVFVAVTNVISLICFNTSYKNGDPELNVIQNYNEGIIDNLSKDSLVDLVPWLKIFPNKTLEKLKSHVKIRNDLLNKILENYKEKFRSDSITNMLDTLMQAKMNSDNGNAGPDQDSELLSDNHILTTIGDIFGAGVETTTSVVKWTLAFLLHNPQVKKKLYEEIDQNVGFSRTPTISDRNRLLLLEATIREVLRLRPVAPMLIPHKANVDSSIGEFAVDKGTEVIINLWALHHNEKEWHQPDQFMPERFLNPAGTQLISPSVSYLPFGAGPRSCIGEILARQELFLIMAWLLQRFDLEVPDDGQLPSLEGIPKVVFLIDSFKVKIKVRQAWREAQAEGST

For series [7], the target named is T1, Steroid 17-alpha-hydroxylase/17,20 lyase. Type of series: microsomes, Testis, Microsomes.
The species named for series [8] is Mus musculus. It is filed as functional.
For series [9], the species on record is Mus musculus. Type of series: functional. This is another data set of the same source.
Series [10] is filed under the species Rattus norvegicus. It is filed as functional.
A short description of series [11]: in vitro. Particulars: rat, in vivo. This is another data set of the same source.

Some results are limits rather than exact numbers.

`C[C@@H](OC(=O)C12CC3CC(CC(C3)C1)C2)c1ccncc1` came in with a half-life in series [1] of 30 s.
Take `C[C@H](OC(=O)C12CC3CC(CC(C3)C1)C2)c1ccncc1`: in [1], the half-life stood at 30 s.
For `O=C(OCc1ccncc1)C12CC3CC(CC(C3)C1)C2`, the “Substrate metabolized at 1hr” value in [2] worked out at 45%; in [3] it was 100%; in [4], 100%. The half-life at 1 min in [5] is under 60 s.
For the compound `C[C@@H](NC(=O)C12CC3CC(CC(C3)C1)C2)c1ccncc1`, the IC50 was 1.9 µM in series [6] and 0.43 µM in [7].
For `CC(C)(OC(=O)C12CC3CC(CC(C3)C1)C2)c1ccncc1`, the “Substrate metabolized at 1hr” value is recorded as 2% in series [8], 0% in series [9] and 0% in [10]. In series [11], this compound gave a half-life at 1 h of over 1 h.
Take `C[C@H](NC(=O)C12CC3CC(CC(C3)C1)C2)c1ccncc1`: the values for the IC50 in series [6] and in [7] were 0.82 µM and 0.21 µM, respectively.
